From ChEMBL document CHEMBL2311530, “The development of potential new fluorine-18 labelled radiotracers for imaging the GABA(A) receptor” (Bioorg Med Chem Lett, 2013)

How the values were obtained:
[1] = Displacement of […]FMZ from Wistar rat cerebellum GABAA receptor by competitive radioligand assay; type: tissue-based
[2] = Lipophilicity, log D of the compound in n-octanol at pH 7.4 by shake flask method; type: physicochemical

SMILES | Ki [1] [nM] | logD [2]
CN1Cc2c(C(=O)OC(C)(C)C)ncn2-c2nccc(F)c2C1=O | 1.3 | –
CN1Cc2c(C(=O)OC(C)(C)C)ncn2-c2ccnc(F)c2C1=O | 3.9 | –
CCOC(=O)c1ncn2c1CN(C)C(=O)c1nc(F)ccc1-2 | 14 | –
CCOC(=O)c1ncn2c1[C@@H]1CCCN1C(=O)c1cc(F)ccc1-2 | 2.3 | 1.85
O=C(NCCCF)c1ncn2c1[C@@H]1CCCN1C(=O)c1c(Br)cccc1-2 | > 10000 | –
O=C(OCCCF)c1ncn2c1[C@@H]1CCCN1C(=O)c1c(Br)cccc1-2 | 3.2 | –
O=C(NCCF)c1ncn2c1[C@@H]1CCCN1C(=O)c1c(Br)cccc1-2 | > 10000 | –
O=C(OCCF)c1ncn2c1[C@@H]1CCCN1C(=O)c1c(Br)cccc1-2 | 9.4 | –
CN1Cc2c(C(=O)OC(C)(C)C)ncn2-c2cccc(OCCF)c2C1=O | 1.1 | –
CN1Cc2c(C(=O)OC(C)(C)C)ncn2-c2ccc(OCCF)cc2C1=O | 0.52 | 1.17
CCOC(=O)c1ncn2c1CN(C)C(=O)c1cc(OCCF)ccc1-2 | 2.3 | 1.62
CC(C)OC(=O)c1ncn2c1CN(C)C(=O)c1c(F)cccc1-2 | 0.42 | –
CN1Cc2c(C(=O)OC(C)(C)C)ncn2-c2cccc(F)c2C1=O | 0.76 | 0.69
CC(C)(C)OC(=O)c1ncn2c1CN(CCF)C(=O)c1cc(F)ccc1-2 | 8.9 | –
CCOC(=O)c1ncn2c1CN(CCF)C(=O)c1cc(F)ccc1-2 | 13.5 | 1.54
CN1Cc2c(C(=O)OC(C)(C)C)ncn2-c2ccc(F)cc2C1=O | 1.9 | –
CCOC(=O)c1ncn2c1CN(CC)C(=O)c1cc(F)ccc1-2 | 10.7 | 1.65
CCOC(=O)c1ncn2c1CN(Cc1ccccc1)C(=O)c1cc(F)ccc1-2 | 2.9 | 1.44
CN1Cc2c(C(=O)OCCCF)ncn2-c2ccc(F)cc2C1=O | > 10000 | 0.68
CN1Cc2c(C(=O)NCCF)ncn2-c2ccc(F)cc2C1=O | > 10000 | –
CN1Cc2c(C(=O)NCCCF)ncn2-c2ccc(F)cc2C1=O | > 10000 | –
CN1Cc2c(C(=O)OCCF)ncn2-c2ccc(F)cc2C1=O | 4 | 1.12
CCOC(=O)c1ncn2c1CN(C)C(=O)c1c(F)cccc1-2 | 5.5 | 1.25
CC(C)(C)OC(=O)c1ncn2c1[C@@H]1CCCN1C(=O)c1c(Br)cccc1-2 [BRETAZENIL] | 0.3 | –
CCOC(=O)c1ncn2c1CN(C)C(=O)c1cc(F)ccc1-2 [FLUMAZENIL] | 1.3 | 1.58
